# Reference: patent US6221862A, “Microbicide 1,4,2-dioxazine derivatives” (Bayer Aktiengesellschaft, priority 1997, dated 2001)
# Legend:
# Leptosphaeria nodorum [1] = assay: Leptosphaeria nodorum test (wheat)/curative; type: in vivo; conditions: curative, 250 g/ha, 10 days after inoculation, 0% = control, 100% = no infestation
# Method: Leptosphaeria nodorum test (wheat)/curative
# Solvent: 10 parts by weight of N-methyl-pyrrolidone
# (§1) Emulsifier: 0.6 part by weight of alkylaryl polyglycol ether
# (§2) To prepare an appropriate formulation of the active compound, 1 part by weight of active compound is mixed with the stated amounts of solvent and emulsifier, and the concentrate is diluted with water to the desired concentration.
# (§3) To test for curative activity, young plants are sprayed with a conidia suspension of Leptosphaeria nodorum. The plants remain in an incubation cabin at 20° C. and 100% relative atmospheric humidity for 48 hours and are then sprayed with the formulation of the active compound in the stated application amount.
# The plants are placed in a greenhouse at a temperature of about 15° C. and a relative atmospheric humidity of about 80%.
# (§4) Evaluation is carried out 10 days after the inoculation. In this evaluation, 0% means a degree of action which corresponds to that of the control, while a degree of action of 100% means that no infestation is observed.
# [2] = logP determination by HPLC (EEC Directive 79/831 Annex V. A8); type: physicochemical; conditions: acetonitrile/0.1% aqueous phosphoric acid, gradient method, acetonitrile/0.1% strength aqueous phosphoric acid
# Method: The logP values were determined in accordance with EEC Directive 79/831 Annex V. A8 by HPLC (gradient method, acetonitrile/0.1% strength aqueous phosphoric acid)
# Puccinia recondite = assay: Puccinia test (wheat)/curative; type: in vivo; conditions: curative, 250 g/ha, 10 days after inoculation, 0% = control, 100% = no infestation
# Method: Puccinia test (wheat)/curative
# Solvent: 10 parts by weight of N,N-dimethylacetamide
# as §1, §2
# as §3, with “Puccinia recondite” for “Leptosphaeria nodorum.”, “hours. The plants” for “hours and”, “the” for “the formulation of the”, “compound formulation” for “compound”
# The plants are placed in a greenhouse at a temperature of about 20° C. and a relative atmospheric humidity of about 80% in order to promote the development of rust pustules.
# as §4
# Phytophthora infestans = type: in vivo; conditions: tomato, protective, 100 g/ha, 3 days after inoculation; 0% = control, 100% = no infestation
# Puccinia = Puccinia test (wheat)/protective; type: in vivo; conditions: protective, 250 g/ha, 10 days after inoculation, 0% = control, 100% = no infestation
# Method: Puccinia test (wheat)/protective
# (§5) Solvent: 25 parts by weight of N,N-dimethylacetamide
# as §1, §2
# (§6) To test for protective activity, young plants are sprayed with the formulation of the active compound in the stated application amount. After the spray coating has dried on, the plants are sprayed with the conidia suspension of Puccinia. The plants remain in an incubation cabin at 20° C. and 100% relative atmospheric humidity for 48 hours.
# The plants are then placed in a greenhouse at a temperature of about 20° C. and a relative atmospheric humidity of 80% in order to promote the development of rust pustules.
# as §4
# Leptosphaeria nodorum [3] = assay: Leptosphaeria nodorum test (wheat)/protective; type: in vivo; conditions: protective, 250 g/ha, 10 days after inoculation, 0% = control, 100% = no infestation
# Method: Leptosphaeria nodorum test (wheat)/protective
# as §5, §1
# […] of the active compound, 1 part by weight of active compound is mixed with the stated amounts of solvent and emulsifier, and the concentrate is diluted with water to the desired concentration.
# as §6, with “a spore” for “the conidia”, “Leptosphaeria nodorum.” for “Puccinia.”
# The plants are placed in a greenhouse at a temperature of about 15° C. and a relative atmospheric humidity of 80%.
# as §4
# Pyricularia oryzae = type: in vivo; conditions: rice, protective, 750 g/ha, 4 days after inoculation; 0% = control, 100% = no infestation
# Plasmopara viticola = assay: Plasmopara test (vine)/protective; type: in vivo; conditions: protective, 100 g/ha, 6 days after inoculation, 0% = control, 100% = no infestation
# Method: Plasmopara test (vine)/protective
# Solvent: 47 parts by weight of acetone
# Emulsifier: 3 parts by weight of alkylaryl polyglycol ether
# as §2
# To test for protective activity, young plants are sprayed with the formulation of the active compound in the stated application amount. After the spray coating has dried on, the plants are inoculated with an aqueous spore suspension of Plasmopara viticola and then remain in an incubation cabin at about 20° C. and 100% relative atmospheric humidity for 1 day. The plants are then placed in a greenhouse at about 21° C. and about 90% relative atmospheric humidity for 5 days. The plants are then moistened and placed in an incubation cabin for 1 day.
# Evaluation is carried out 6 days after the inoculation. In this evaluation, 0% means a degree of action which corresponds to that of the control, while a degree of action of 100% means that no infestation is observed.
SMILES,degree of action (Leptosphaeria nodorum [1]),chromatographic logP [2],degree of action (Puccinia recondite),degree of action (Phytophthora infestans),degree of action (Puccinia),degree of action (Leptosphaeria nodorum [3]),degree of action (Pyricularia oryzae),degree of action (Plasmopara viticola)
CON=C(C1=NOCCO1)c1ccccc1CSC(=Nc1ccc(OC)nc1)C1CC1 [Example 1],≥ 95%,3.04,≥ 100%,≥ 90%,≥ 90%,≥ 90%,≥ 70%,≥ 90%
CON=C(C1=NOCCO1)c1ccccc1CSC(=Nc1ccc(OC)cc1)C1CC1 [Example 2],–,3.16,–,–,–,–,≥ 70%,–
CON=C(C1=NOCCO1)c1ccccc1CSC(=Nc1ccccc1C(F)(F)F)C1CC1 [Example 3],–,4.16,–,–,–,–,–,–
